The source of these data is patent US10428043B2, “Green oxidation catalytic system” (TRUSTEES OF BOSTON UNIVERSITY, priority 2014, dated 2019).

Series [1] is described as follows: Room temperature O2 reactivity of ferrous complexes followed by UV/vis. Conditions: methanol. Here is the method:
The solution was transferred to an anaerobic UV/vis cell and sealed. An initial spectrum was obtained of the ferrous complex, and then the solution was exposed to the air. Spectra were recorded every minute for the first two minutes and then every 5-30 minutes after that for seven hours. The absorbance was monitored at 350 nm to follow formation of the oxidized complex.
This solution was then transferred to an anaerobic UV/vis cell and sealed. An initial spectrum was obtained of the ferrous complex, and then the solution was exposed to the air. Spectra were collected every minute for the first 30 minutes and then every 5-20 minutes after that for 2 hours. The absorbance was monitored at 315 nm to follow formation of the oxidized complex.

The nature of series [2]: Cyclic voltammetry, redox potentials. In kind it is physicochemical. An excerpt: All reagents and solvents used were purchased from commercial sources and used as received unless otherwise noted. Prior to use, methanol (Pharmco-Aaper) was distilled over magnesium metal, dimethyl sulfoxide (Fisher Scientific) was distilled over calcium hydride, triethylamine was distilled over sodium metal and unstabilized dichloromethane (Fisher Scientific) was distilled over calcium hydride. Ferrocene was purified by sublimation for use as a reference for electrochemical analyses. All manipulations involving ferrous complexes were carried out in an inert atmosphere glovebox (M. Braun, Stratham, N.H.) with distilled and thoroughly degassed solvents. UV/Vis spectra were collected using a Hewlett Packard Spectrometer (8453). IR spectra were collected using a Thermo Nicolet AVATAR 330-FT-IR. Cyclic voltammetry experiments were performed using a Princeton Applied Research model 273 potentiostat with a glassy carbon working electrode, a silver wire reference electrode and a platinum wire counter electrode. Electron Paramagnetic Resonance (EPR) spectra were collected on a Bruker ESP-300E spectrometer operating at 9.460 GHz. NMR spectra were recorded at 25° C. using a Varian spectrometer operating at 400 MHz with all chemical shifts referenced to SiMe4. Iron concentrations were determined using a Varian AA240Z Atomic Absorption Spectrometer.
Cyclic voltammetry was performed inside an inert atmosphere (N2) box, with degassed DMSO as the solvent and tetra-N-butylammonium hexafluorophosphate as the supporting electrolyte (0.2M). The ferrocenium/ferrocene couple was used as an internal reference; reduction potential values were corrected by assigning the ferrocenium/ferrocene couple to 0.64 V versus NHE (Zanello, P. Inorganic Electrochemistry; The Royal Society of Chemistry: Cambridge, 2003). Chloride titration experiments were performed by collecting CV data after the addition of one and two 50 μL aliquots of 204 mM [NEt4][Cl] to 3.0 mL of 3.4 mM [Fe^II(N2O1py)(Cl)2]^− (concentration determined using flame atomic absorption spectroscopy) and correcting the potential with reference to the ferrocenium/ferrocene couple.
It should be noted that these redox potentials were determined in the absence of excess halide, and further CV studies will be performed in the presence of excess halide for all derivatives of the N2O1py system.

A further series is described as follows: Solubility. It counts as physicochemical.
Setting [3] is: calculated from redox potentials for the one-electron transfer between iron and dioxygen.

Regarding `CN(CC(=O)[O-])Cc1ccccn1.[Cl-].[Cl-].[Fe+2]` [[Fe^II(N2O1py)(Cl)2]^−, [PSH][Fe^II(N2O1py)(Cl)2]], the “time for formation of the diferric oxo-bridged product on reaction with O2” value in series [1] is above 7 h. This compound also returned a redox potential in series [2] of 188 mV. Besides, the E1/2 in series [2] (DMSO, glassy carbon working electrode, absence of excess halide) is given as 216 mV. Also, in series [2] (setting [3]), the Keq is reported as 1.7 × 10^−9 and the “ΔG°” value is recorded as 50 kJ. Moreover, the ΔE in series [2] (no added halide) came to 96 mV. Also, in series [2] (no added halide, in mV), the E1/2 result is “+216”. The “solubility properties compared with the first generation catalyst” value in “Solubility” was “very similar solubility properties”.
